Converted amounts (≈) assume the structure as drawn. Where two headings read alike, the source gives them in different places.
What was measured:
S. aureus [1] = test: Antibacterial activity by spread plate-disc diffusion method; assay type: cell-based; conditions: 20 μl from 1 mg/ml stock per disc, 37° C., 24 h, "0" indicates no antibacterial activity
Experimental: (§1) In an embodiment, the antibacterial activity of nigericin and compounds of formula I are determined by the Disc diffusion method. […] The compounds of formula I are found to be inhibiting both gram-positive and gram-negative bacteria.
(§2) Nigericin along with compounds of formula I were tested against Gram-positive (S. aureus) and Gram-negative (E. coli) test organisms by spread plate-disc diffusion method. 20 μl from 1 mg/ml concentration stock was used per disc for each test compound and plated were incubated at 37° C. for 24 h. After the incubation period zone of inhibition was measured.

E. coli [2] = test: as above; assay type: cell-based; conditions: 20 μl from 1 mg/ml stock per disc, 37° C., 24 h, "0" indicates no antibacterial activity
Experimental: as §1, §2

[3] = In-vitro toxicity, MTT assay; assay type: cell-based, mouse; conditions: mouse, wild-type mouse embryonic fibroblast cells (WTMEFs), read-out: Cytotoxicity IC50; for IC50 at 2 h: 2 h treatment; for IC50 at 24 h: 24 h treatment
Experimental: (§3) In a preferred embodiment, nigericin and compounds of formula I are tested for toxicity on Wild type mouse fibroblast cell lines using 3-(4,5-dimethylthiazol-2-yl)-2,5-diphenyltetrazolium bromide assay (MTT assay).
(§4) Wild-type mouse fibroblast cell line (WTMEFs) was used to assess the toxicity associated with nigericin and its fluorinated analogues for the viability using 3-(4,5-dimethylthiazol-2-yl)-2,5-diphenyltetrazolium bromide assay (MTT assay). WTMEFs cell line was seeded in 96-well plates at a density of 5000 cells per well in […] DMEM media containing 10% FBS. The cell lines were incubated for 24 h in a CO2 incubator at 37° C. After 24 h, the drug was added at a concentration of […] and incubated for 2 h and 24 h. MTT assay was carried out to verify the cell viability after 2 h and 24 h of drug treatment in respective plates. All drug concentration was used in triplicate (n=3).

[4] = system: Wild-type mouse fibroblast cell line (WTMEFs); test: In-vitro toxicity, MTT assay; assay type: cell-based; conditions: 24 h treatment, read-out: Cytotoxicity IC50
Experimental: as §3, §4

Polio Virus = conditions: read-out: effective concentration (EC50), inhibition of viral RNA synthesis; cited from earlier work
S. aureus [5] = test: Minimum inhibitory concentration by micro-dilution method; assay type: cell-based; conditions: Staphylococcus aureus; Gram-positive bacteria S. aureus
Experimental: (§5) MIC determination: Minimum inhibitory concentration was determined using micro-dilution method in the 96 well plates. 20 μl from 1 mg/ml stock was mixed with culture to get 66 μg/ml concentration and serially diluted in further well to get a concentration of 33 μg/ml, 16.5 μg/ml and so on, refer FIG. 1.

E. coli [6] = test: as above; assay type: cell-based; conditions: Gram-negative organism E. coli; for MIC: Escherichia coli
Experimental: as §5

Row | SMILES | Antibacterial activity by disc diffusion method (Zone measured in mm) (S. aureus [1]) [mm] | Antibacterial activity by disc diffusion method (Zone measured in mm) (E. coli [2]) [mm] | IC50 at 2 h [3] [mM] | IC50 at 2 h ([3]; unit mM) [mM] | IC50 at 24 h [3] [mM] | IC50 at 24 h ([3]; unit mM) [mM] | IC50 [4] [µM] | EC50 (Polio Virus) [µM] | MIC (S. aureus [5]) [µM] | Minimum inhibitory concentration (MIC) (E. coli [6]) | MIC (E. coli [6]) [µM]
1 | CO[C@@H]1C[C@@H](C[C@H]2CC[C@H](C)[C@H]([C@@H](C)C(=O)O)O2)O[C@]2(O[C@](C)([C@H]3CC[C@@](C)([C@@H]4O[C@@H]([C@H]5O[C@@](O)(CO)[C@H](C)C[C@@H]5C)C[C@@H]4C)O3)C[C@H]2C)[C@@H]1C [Nigericin, reference compound] | 22 | 0 | ~0.01 | ~0.01 | ~0.01 | ~0.01 | 9.22 | ~1 | 0.3 (≈ 0.217 µg/mL) | did not show any inhibition | –
2 | COc1ccc(OC(=O)[C@H](C)C2O[C@@H](C[C@@H]3CC(OC)C(C)[C@]4(O3)O[C@](C)(C3CC[C@@](C)(C5OC(C6O[C@@](O)(CO)[C@H](C)C[C@@H]6C)C[C@@H]5C)O3)C[C@H]4C)CC[C@@H]2C)cc1 (stereo partly drawn) [Analog N-2] | 0 | 0 | – | – | – | – | – | – | – | – | –
3 | COC1C[C@@H](C[C@H]2CC[C@H](C)C([C@@H](C)C(=O)Nc3ccccc3F)O2)O[C@]2(O[C@](C)(C3CC[C@@](C)(C4OC(C5O[C@@](O)(CO)[C@H](C)C[C@@H]5C)C[C@@H]4C)O3)C[C@H]2C)C1C (stereo partly drawn) [Analog N-3, (2R)—N-(2-fluorophenyl)-2-((3S,6R)-6-(((2S,4R,5R,7R)-2-((2S,3′S)-5′-((3S,5R,6R)-6-hydroxy-6-(hydroxymethyl)-3,5-dimethyltetrahydro-2H-pyran-2-yl)-2,3′-dimethyloctahydro-[2,2′-bifuran]-5-yl)-9-methoxy-2,4,10-trimethyl-1,6-dioxaspiro[4.5]decan-7-yl)methyl)-3-methyltetrahydro-2H-pyran-2-yl)propanamide] | 31 | 33 | > 0.1 | > 0.1 | 0.0669 | 0.0669 | – | – | 2.5 (≈ 2.05 µg/mL) | – | 0.3 (≈ 0.245 µg/mL)
4 | COC1C[C@@H](C[C@H]2CC[C@H](C)C([C@@H](C)C(=O)Nc3ccc(F)cc3)O2)O[C@]2(O[C@](C)(C3CC[C@@](C)(C4OC(C5O[C@@](O)(CO)[C@H](C)C[C@@H]5C)C[C@@H]4C)O3)C[C@H]2C)C1C (stereo partly drawn) [Analog N-5] | 23 | 30 | > 0.1 | > 0.1 | 0.0598 | 0.0598 | – | – | 5 (≈ 4.09 µg/mL) | – | 0.3 (≈ 0.245 µg/mL)
5 | COC1C[C@@H](C[C@H]2CC[C@H](C)C([C@@H](C)C(=O)Oc3ccccc3)O2)O[C@]2(O[C@](C)(C3CC[C@@](C)(C4OC(C5O[C@@](O)(CO)[C@H](C)C[C@@H]5C)C[C@@H]4C)O3)C[C@H]2C)C1C (stereo partly drawn) [Analog N-1, phenyl (2R)-2-((3S,6R)-6-(((2S,4R,5R,7R)-2-((2S,3′S)-5′-((3S,5R,6R)-6-hydroxy-6-(hydroxymethyl)-3,5-dimethyltetrahydro-2H-pyran-2-yl)-2,3′-dimethyloctahydro-[2,2′-bifuran]-5-yl)-9-methoxy-2,4,10-trimethyl-1,6-dioxaspiro[4.5]decan-7-yl)methyl)-3-methyltetrahydro-2H-pyran-2-yl)propanoate] | 0 | 0 | – | – | – | – | – | – | – | – | –
